These results are taken from BindingDB's records for patent US20250195521 (Revolution Medicines, 2025).

Among the targets are GTPase NRas [G12C] (Homo sapiens, UniProt P01111, G12C); GTPase KRas (Homo sapiens, UniProt P01116); kras g13d (Homo sapiens, UniProt P01116, G13D); GTPase KRas [G12V] (Homo sapiens, UniProt P01116, G12V); GTPase KRas [G12D] (Homo sapiens, UniProt P01116, G12D); GTPase KRas [G12C] (Homo sapiens, UniProt P01116, G12C); GTPase KRas [G13C] (Homo sapiens, UniProt P01116, G13C); GTPase KRas [Q61H] (Homo sapiens, UniProt P01116, Q61H); GTPase NRas [Q61K] (Homo sapiens, UniProt P01111, Q61K); GTPase NRas [Q61R] (Homo sapiens, UniProt P01111, Q61R); GTPase NRas (Homo sapiens, UniProt P01111).

Sequence of GTPase KRas [G13C] (P01116 whole entry G13C): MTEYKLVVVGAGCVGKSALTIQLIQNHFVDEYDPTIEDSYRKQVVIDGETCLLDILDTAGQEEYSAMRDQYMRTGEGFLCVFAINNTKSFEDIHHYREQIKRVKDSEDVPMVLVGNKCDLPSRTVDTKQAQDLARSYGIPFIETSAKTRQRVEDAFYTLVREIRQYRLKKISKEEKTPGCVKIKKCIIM
Sequence of GTPase KRas (P01116 whole entry): as the sequence (P01116 whole entry G13C) above, with C13G counted along it
Sequence of kras g13d (P01116 whole entry G13D): as the sequence (P01116 whole entry G13C) above, with C13D counted along it
Sequence of GTPase NRas [G12C] (P01111 whole entry G12C): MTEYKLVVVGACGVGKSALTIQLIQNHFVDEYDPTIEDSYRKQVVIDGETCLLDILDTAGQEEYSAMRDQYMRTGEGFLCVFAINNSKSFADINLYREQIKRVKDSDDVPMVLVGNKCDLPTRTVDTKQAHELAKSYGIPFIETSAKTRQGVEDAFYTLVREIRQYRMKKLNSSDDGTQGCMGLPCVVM
Sequence of GTPase KRas [G12V] (P01116 whole entry G12V): as the sequence (P01116 whole entry G13C) above, with G12V, C13G counted along it
Sequence of GTPase KRas [G12C] (P01116 whole entry G12C): as the sequence (P01116 whole entry G13C) above, with G12C, C13G counted along it
Sequence of GTPase KRas [G12D] (P01116 whole entry G12D): as the sequence (P01116 whole entry G13C) above, with G12D, C13G counted along it
Sequence of GTPase NRas [Q61K] (P01111 whole entry Q61K): as the sequence (P01111 whole entry G12C) above, with C12G, Q61K counted along it
Sequence of GTPase NRas [Q61R] (P01111 whole entry Q61R): as the sequence (P01111 whole entry G12C) above, with C12G, Q61R counted along it
Sequence of GTPase KRas [Q61H] (P01116 whole entry Q61H): as the sequence (P01116 whole entry G13C) above, with C13G, Q61H counted along it
Sequence of GTPase NRas (P01111 whole entry): as the sequence (P01111 whole entry G12C) above, with C12G counted along it

In the case of `CCN1C[C@@H](C(=O)N(C)[C@H](C(=O)N[C@H]2Cc3cc(O)cc(c3)-c3ccc4c(c3)c(c(-c3cnccc3COC)n4CC)CC(C)(C)COC(=O)[C@@H]3CCCN(N3)C2=O)C(C)C)CC1=O` [US20250195521, Example A16], the IC50 entry is “in the range around 550 nM” against GTPase NRas [G12C]; “in the range around 550 nM” against GTPase KRas; “in the range around 550 nM” on kras g13d; “in the range around 550 nM” against GTPase KRas [G12V]; “in the range around 5500 nM” on GTPase KRas [G12D]; 55 nM on GTPase KRas [G12C]. The same compound registered an IC50 against GTPase KRas [G13C] of 550 nM.

Regarding `CCn1c(-c2cnccc2COC)c2c3cc(ccc31)-c1cc(O)cc(c1)C[C@H](NC(=O)[C@H](C(C)C)N(C)C(=O)[C@@H]1NC[C@@H]3C[C@@H]31)C(=O)N1CCC[C@H](N1)C(=O)OCC(C)(C)C2` [US20250195521, Example A78], the IC50 entry was “in the range around 550 nM” at GTPase NRas [G12C]; “in the range around 550 nM” on GTPase KRas; “in the range around 550 nM” at kras g13d; “in the range around 550 nM” on GTPase KRas [G12V]; “in the range around 550 nM” against GTPase KRas [G12D]; 550 nM at GTPase KRas [G12C]. The compound also returned an IC50 at GTPase KRas [G13C] of 55 nM.

`CCn1c(-c2cccnc2[C@H](C)OC)c2c3cc(ccc31)-c1cc(O)cc(c1)C[C@H](NC(=O)[C@H](C(C)C)N(C)C(=O)[C@H]1CCN(C(=O)OC(C)C)C1)C(=O)N1CCC[C@H](N1)C(=O)OCC(C)(C)C2` [US20250195521, Example A117]: the IC50 on GTPase KRas [G12V] was above 10000 nM.

In the case of `CCn1c(-c2cccnc2[C@H](C)OC)c2c3cc(ccc31)-c1csc(n1)C[C@H](NC(=O)[C@H](C(C)C)N(C)C(=O)OC)C(=O)N1CCC[C@H](N1)C(=O)OCC(C)(C)C2` [US20250195521, Example A138], the IC50 result was “in the range around 550 nM” against GTPase NRas [G12C]; “in the range around 550 nM” against GTPase KRas [Q61H]; “in the range around 550 nM” on GTPase KRas; “in the range around 5500 nM” against kras g13d; “in the range around 550 nM” against GTPase NRas [Q61K]; “in the range around 550 nM” on GTPase KRas [G12V]. Also, the 50% inhibitory concentration (IC50) entry against GTPase KRas [G12D] was “in the range around 5500 nM”; at GTPase NRas [Q61R], “in the range around 550 nM”; against GTPase KRas [G12C], 550 nM; against GTPase NRas, “in the range around 550 nM”; at GTPase KRas [G13C] it was 550 nM.

For `CCn1c(-c2cccnc2[C@H](C)OC)c2c3cc(ccc31)-c1cc(O)cc(c1)C[C@H](NC(=O)C1[C@H]3COC[C@@H]13)C(=O)N1CCC[C@H](N1)C(=O)OCC(C)(C)C2` (stereo not given in full) [US20250195521, Example A253], at GTPase KRas [G12D], the IC50 was above 10000 nM.

For `CCn1c(-c2cccnc2[C@H](C)OC)c2c3cc(ccc31)-c1csc(n1)C[C@H](NC(=O)[C@H](C(C)C)N(C)C(=O)N1CCC[C@@H](N(C)C)CC1)C(=O)N1CCC[C@H](N1)C(=O)OCC(C)(C)C2` [US20250195521, Example A494], the IC50 entry on GTPase NRas [G12C], at GTPase KRas [Q61H], on GTPase KRas, against GTPase NRas [Q61K], against GTPase KRas [G12D] and on GTPase NRas [Q61R] was “in the range around 55 nM” in each case. The IC50 at GTPase KRas [G12C] was 55 nM; against GTPase NRas, “in the range around 55 nM”.

By IC50 is commonly meant the midpoint of a concentration-inhibition curve. Lower therefore signals inhibition by little substance.
